The text below walks through data of patent US20120107275A1, “FUSED HETEROCYCLIC DERIVATIVES AND METHODS OF USE” (Amgen Inc., priority 2006, published 2012).

Assay [1] addresses T1, c-Met kinase domain (GST-cMet) (Homo sapiens, UniProt P08581).
T1 construct: A PCR product covering residues 1058-1365 of c-Met (c-Met kinase domain); made in house; host or cells: High5 insect cells (baculovirus, BacToBac)
Kind of assay: c-Met receptor assay (HTRF kinase assay with GST-cMet (P) enzyme, gastrin and ATP). Type of assay: biochemical. The following applies: for IC50: c-Met receptor assay; for Ki: illustrative activity values, HTRF kinase assay with GST-cMet (P) enzyme. The protocol: Cloning, Expression and Purification of c-Met Kinase Domain
The PCR product is cloned into a modified pFastBac1 expression vector (harboring the gene for S. japonicum glutathione S-transferase immediately upstream of the multiple cloning site) using standard molecular biological techniques. The GST-c-Met kinase domain fusion (GST-Met) gene is transposed into full-length baculovirus DNA using the BacToBac™ system (Invitrogen). High5 cells are infected with the recombinant baculovirus for 72 h at 27° C. The infected cells are harvested by centrifugation and the pellet is stored at −80° C. The pellet is resuspended in buffer A (50 mM HEPES, pH 8.0, 0.25 M NaCl, 10 mM 2-mercaptoethanol, 10% (w/v) glycerol, 0.5% (v/v) protease inhibitor cocktail (Sigma P8340), stirred at 4° C. to homogeneity, and the cells are disrupted by microfluidization (Microfluidics) at 10,000 psi. The resulting lysate is centrifuged at 50,000×g for 90 min at 4° C., and the supernatant is adsorbed onto 10 mL of glutathione Sepharose™ 4B (Amersham) by batch method. The slurry is rocked gently overnight at 4° C. The glutathione resin is harvested by centrifugation and washed three times with 40 mL buffer A by batch method. The resin is washed three times with buffer B (buffer A adjusted to 0.1 M NaCl, less protease inhibitors). The protein is eluted with buffer B containing 25 mM reduced glutathione. Eluted fractions are analyzed by SDS-PAGE and concentrated to <10 mL (˜10 mg/mL total protein). The concentrated protein is separated by Superdex™ 200 (Amersham) size exclusion chromatography in buffer C (25 mM Tris, pH 7.5, 0.1 M NaCl, 10 mM 2-mercaptoethanol, 10% glycerol). The fractions are analyzed by SDS-PAGE and the appropriate fractions are pooled and concentrated to ˜1 mg/mL. The protein is aliquotted and stored at −80° C.
Alternative Purification of Human GST-cMET from Baculovirus Cells
The resin is washed with 10 column volumes (100 mL) of Lysis Buffer. […] The elution is collected as 15 mL fractions. Aliquots of the elution fractions are run on SDS PAGE (12% Tris Glycine gel, Invitrogen, #EC6005BOX). The gel is stained with 0.25% Coomassie Blue stain. Fractions with GST-cMET are concentrated with a Vivaspin 20 mL Concentrator (#VS2002; […]) to a final volume less than 2.0 ml. […] The GST-cMET is eluted with an isocratic run of the above buffer, with the eluent collected in 1.0 mL fractions. Fractions with significant OD280 readings are run on another 12% Tris Glycine gel. The peak tubes with GST-cMET are pooled and the OD280 is read with the column buffer listed above as the blank buffer.
Phosphorylation of the purified GST-cMET is performed by incubating the protein for 3 h at RT with the following:
After incubation, the solution is concentrated in a Vivaspin 20 ml Concentrator to a volume less than 2.00 ml. The solution is applied to the same Superdex 75 16/60 column used above after re-equilibration. The GST-cMET is eluted as described above. The elution fractions corresponding to the first eluted peak on the chromatogram are run on a 12% Tris Glycine gel, as above, to identify the fractions with GST-cMET. Fractions are pooled and the OD280 is read with the column buffer used as the blank.
A Kinase reaction Buffer is prepared as follows:
When the assay is carried out, freshly add:
The HTRF buffer contains:
1. […] 2. […] Then incubate the plate at RT for 30 min. 3.
Use Biomek FX to add 20 μl ATP and Gastrin working solution to the assay plate to start reaction, incubate the plate at RT for 1 h. 4.
KM ATP, KM gastrin for various enzymes were determined by HTRF/^33P labeling and HTRF methods.

Assay [2] has as its target T2, c-Met (Homo sapiens, UniProt P08581).
T2 construct: host or cells: PC3 (human)
Kind of assay: c-Met cell-based autophosphorylation assay, PC3 cells (HGF stimulated, IGEN readout). The following applies: HGF 250 ng/mL. The protocol: (§1) c-Met Cell-Based Autophosphorylation Assay
(§2) Human PC3 and mouse CT26 cells are available obtained from ATCC. […] 2×10^4 cells in medium were plated per well in a 96 well plate and incubated at 37° C. overnight. The cells were serum-starved by replacing the growth media with basic medium (DMEM low glucose+0.1 BSA, 120 μL per well) at 37° C. for 16 h. […] Compound samples (2.4 μL per well) were diluted with basic medium (240 μL) in a 96 well plate. […] The cells were incubated at 37° C. for 1 h. A (2 mg/mL) solution of CHO-HGF (7.5 μL) was diluted with 30 mL basic medium to provide a final concentration of 500 ng/mL. This HGF-containing media (120 μL) was transferred to a 96 well plate. Compounds (1.2 μL) was added to the HGF-containing media and mixed well.
(§3) BSA/0.1% Tween20) by rotating for 30 min at RT. Antibody beads (25 μL) were transferred to a 96 well plate. Cell lysate solution (25 μL) was transferred added and the plate was shaken at RT for 1 h. […] 1×PBS (175 μL) was added to each well and the electrochemiluminescence was read by an IGEN M8. Raw data was analyzed using a 4-parameter fit equation in XLFit. IC50 values are then determined using Grafit software.

In assay [3] the target is T3, c-Met (Mus musculus, UniProt P16056).
T3 construct: host or cells: CT26 (mouse)
In words: c-Met cell-based autophosphorylation assay, CT26 cells (HGF stimulated, IGEN readout). The following applies: HGF 250 ng/mL. On the procedure: as §1, §2, §3

T3 sequence (P16056 25-1379): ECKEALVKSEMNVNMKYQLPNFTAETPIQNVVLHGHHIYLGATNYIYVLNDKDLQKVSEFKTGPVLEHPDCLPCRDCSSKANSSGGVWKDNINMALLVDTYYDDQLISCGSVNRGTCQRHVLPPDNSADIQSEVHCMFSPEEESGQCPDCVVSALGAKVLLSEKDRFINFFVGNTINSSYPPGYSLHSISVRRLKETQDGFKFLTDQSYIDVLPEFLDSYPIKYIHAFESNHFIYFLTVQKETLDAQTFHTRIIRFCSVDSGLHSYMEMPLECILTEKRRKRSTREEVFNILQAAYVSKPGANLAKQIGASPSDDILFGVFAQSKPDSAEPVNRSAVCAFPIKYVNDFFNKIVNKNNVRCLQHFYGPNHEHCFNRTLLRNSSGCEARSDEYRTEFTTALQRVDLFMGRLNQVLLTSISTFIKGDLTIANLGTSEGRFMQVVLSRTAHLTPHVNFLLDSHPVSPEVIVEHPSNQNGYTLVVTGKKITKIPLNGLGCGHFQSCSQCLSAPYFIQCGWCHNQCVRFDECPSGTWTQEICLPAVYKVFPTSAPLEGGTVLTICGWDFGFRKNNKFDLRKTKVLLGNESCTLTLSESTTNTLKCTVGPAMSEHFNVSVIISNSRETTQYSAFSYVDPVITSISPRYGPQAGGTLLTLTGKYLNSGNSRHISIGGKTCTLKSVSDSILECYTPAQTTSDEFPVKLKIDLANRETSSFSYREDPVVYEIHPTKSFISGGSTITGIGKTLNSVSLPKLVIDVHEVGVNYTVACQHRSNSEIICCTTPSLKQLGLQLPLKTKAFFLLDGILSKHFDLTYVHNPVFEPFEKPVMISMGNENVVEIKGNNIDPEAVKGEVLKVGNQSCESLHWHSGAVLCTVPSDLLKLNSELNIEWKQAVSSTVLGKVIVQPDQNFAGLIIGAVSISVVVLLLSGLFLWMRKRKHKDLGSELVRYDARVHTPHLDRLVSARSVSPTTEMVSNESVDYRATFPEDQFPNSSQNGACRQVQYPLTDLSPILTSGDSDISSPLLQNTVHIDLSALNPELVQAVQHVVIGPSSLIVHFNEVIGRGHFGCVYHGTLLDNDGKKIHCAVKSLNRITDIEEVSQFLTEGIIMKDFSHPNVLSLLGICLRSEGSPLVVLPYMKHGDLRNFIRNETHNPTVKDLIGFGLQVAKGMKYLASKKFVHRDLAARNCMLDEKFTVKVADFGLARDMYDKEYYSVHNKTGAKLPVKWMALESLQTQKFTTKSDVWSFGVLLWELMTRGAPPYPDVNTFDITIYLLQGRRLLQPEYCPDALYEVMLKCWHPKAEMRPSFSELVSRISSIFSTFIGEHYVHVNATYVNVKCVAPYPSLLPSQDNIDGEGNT
T2 sequence (P08581 25-1390): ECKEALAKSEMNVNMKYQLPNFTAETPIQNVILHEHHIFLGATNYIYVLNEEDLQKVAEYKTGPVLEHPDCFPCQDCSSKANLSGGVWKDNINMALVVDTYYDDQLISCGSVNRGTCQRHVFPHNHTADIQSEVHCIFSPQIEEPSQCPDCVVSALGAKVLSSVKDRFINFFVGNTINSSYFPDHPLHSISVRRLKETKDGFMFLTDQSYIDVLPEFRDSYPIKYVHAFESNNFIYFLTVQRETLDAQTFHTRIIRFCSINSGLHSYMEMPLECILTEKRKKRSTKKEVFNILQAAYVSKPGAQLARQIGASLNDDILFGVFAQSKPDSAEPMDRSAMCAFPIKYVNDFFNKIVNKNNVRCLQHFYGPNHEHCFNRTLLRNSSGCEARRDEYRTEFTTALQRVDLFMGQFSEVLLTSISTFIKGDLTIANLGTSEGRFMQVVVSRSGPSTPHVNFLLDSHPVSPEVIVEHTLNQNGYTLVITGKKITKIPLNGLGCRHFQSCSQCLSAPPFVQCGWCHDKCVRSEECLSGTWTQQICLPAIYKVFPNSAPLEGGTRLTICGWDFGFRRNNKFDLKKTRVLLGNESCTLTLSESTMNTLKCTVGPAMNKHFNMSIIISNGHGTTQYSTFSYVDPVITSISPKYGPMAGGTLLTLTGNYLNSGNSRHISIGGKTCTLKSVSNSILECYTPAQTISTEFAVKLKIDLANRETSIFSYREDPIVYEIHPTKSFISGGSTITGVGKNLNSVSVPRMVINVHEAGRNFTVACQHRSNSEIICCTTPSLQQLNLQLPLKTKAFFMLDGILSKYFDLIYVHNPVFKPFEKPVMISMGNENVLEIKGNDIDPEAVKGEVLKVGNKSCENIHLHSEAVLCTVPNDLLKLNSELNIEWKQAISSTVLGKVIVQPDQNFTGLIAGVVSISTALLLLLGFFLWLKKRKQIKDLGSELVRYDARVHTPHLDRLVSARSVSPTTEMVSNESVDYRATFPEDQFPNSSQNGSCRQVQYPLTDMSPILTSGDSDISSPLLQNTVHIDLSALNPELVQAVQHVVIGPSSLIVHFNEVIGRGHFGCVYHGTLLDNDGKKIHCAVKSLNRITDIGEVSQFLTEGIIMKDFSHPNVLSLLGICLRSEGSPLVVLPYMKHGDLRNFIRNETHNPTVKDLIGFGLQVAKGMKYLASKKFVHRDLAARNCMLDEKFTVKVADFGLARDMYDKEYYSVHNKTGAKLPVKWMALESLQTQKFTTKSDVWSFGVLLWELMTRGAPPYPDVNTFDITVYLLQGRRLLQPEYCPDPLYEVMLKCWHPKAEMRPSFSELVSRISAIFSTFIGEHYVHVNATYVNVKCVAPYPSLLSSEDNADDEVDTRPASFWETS
T1 sequence (P08581 1058-1365): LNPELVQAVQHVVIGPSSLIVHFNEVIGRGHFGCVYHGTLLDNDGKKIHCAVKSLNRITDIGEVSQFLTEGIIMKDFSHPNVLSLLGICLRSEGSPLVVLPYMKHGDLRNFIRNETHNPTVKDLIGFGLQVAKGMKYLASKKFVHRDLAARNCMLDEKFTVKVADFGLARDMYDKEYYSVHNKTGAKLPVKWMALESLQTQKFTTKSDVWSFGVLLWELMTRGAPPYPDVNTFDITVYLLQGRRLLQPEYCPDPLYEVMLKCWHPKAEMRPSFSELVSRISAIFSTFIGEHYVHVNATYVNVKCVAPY

For the molecule `COc1cnc2c(NCc3nnc4ccc(-c5cc(CO)no5)nn34)ccnc2c1` [Example 37, (5-(3-((7-methoxy-1,5-naphthyridin-4-ylamino)methyl)-[1,2,4]triazolo[4,3-b]pyridazin-6-yl)isoxazol-3-yl)methanol], the IC50 in assay [1] is below 0.5 µM; on c-Met [2] it was below 1 µM; against c-Met [3], below 1 µM.

In turn, `Cc1cc(-c2cc(F)c3nnc([C@@H](C)n4ccc5ncc(-c6cnn(C)c6)cc5c4=O)n3c2)on1` [Example 527, 6-((R)-1-(8-fluoro-6-(3-methylisoxazol-5-yl)-[1,2,4]-triazolo[4,3-a]pyridin-3-yl)ethyl)-3-(1-methyl-1H-pyrazol-4-yl)-1,6-naphthyridin-5(6H)-one] gave a Ki in assay [1] of 0.0003 µM. For `c1ccc(-c2ccc3nnc(COc4ccnc5ccccc45)n3n2)cc1` [Example 2, 4-((6-phenyl-[1,2,4]triazolo[4,3-b]pyridazin-3-yl)methoxy)quinoline], the IC50 against c-Met [2] and against c-Met [3] was below 1 µM throughout. `C[C@H](c1nnc2c(F)cc(-c3cnn(CCO)c3)cn12)n1ccc2ncccc2c1=O` [Example 509, (R)-6-(1-(8-fluoro-6-(1-(2-hydroxyethyl)-1H-pyrazol-4-yl)-[1,2,4]triazolo[4,3-a]pyridin-3-yl)ethyl)-1,6-naphthyridin-5(6H)-one] displayed a Ki in assay [1] of 0.0032 µM. With `COc1cnc2c(NCc3nnc4ccc(-c5cc(C(=O)O)no5)nn34)ccnc2c1` [Example 36, 5-(3-((7-methoxy-1,5-naphthyridin-4-ylamino)methyl)-[1,2,4]triazolo[4,3-b]pyridazin-6-yl)isoxazole-3-carboxylic acid], the IC50 in assay [1] was below 0.5 µM; against c-Met [2] it was below 1 µM; on c-Met [3] it was below 1 µM.

Molecule `CNC(=O)c1ccc(-c2ccc3nnc(COc4ccnc5cc(OC)ccc45)n3n2)s1` [Example 30, 5-(3-((7-methoxyquinolin-4-yloxy)methyl)-[1,2,4]triazolo[4,3-b]pyridazin-6-yl)-N-methylthiophene-2-carboxamide] displayed an IC50 in assay [1] below 0.5 µM. In the case of `COc1ccc2c(OCc3nnc4ccc(-c5ccc(N(C)C)nc5)nn34)ccnc2c1` [Example 43, 5-(3-((7-methoxyquinolin-4-yloxy)methyl)-[1,2,4]triazolo[4,3-b]pyridazin-6-yl)-N,N-dimethylpyridin-2-amine], the IC50 against c-Met [2] and against c-Met [3] was below 1 µM throughout.

`c1ccc(-c2ccc3nnc(Cc4ccc5c(c4)OCO5)n3n2)cc1` [Example 326]: affinity in assay [1] was put at a Ki of 0.394 µM.

`Fc1cc(-c2ccccc2)cn2c(Cc3ccc4ncccc4c3)nnc12` [Example 437, 6-((8-fluoro-6-phenyl-[1,2,4]triazolo[4,3-a]pyridin-3-yl)methyl)quinoline]: in assay [1], the Ki stood at 0.0364 µM. Same read-out and setting: then `Cc1csc(-c2cc(F)c3nnc([C@@H](C)n4ccc5ncccc5c4=O)n3c2)c1` [Example 511, (R)-6-(1-(8-fluoro-6-(4-methylthiophen-2-yl)-[1,2,4]-triazolo[4,3-a]pyridin-3-yl)ethyl)-1,6-naphthyridin-5(6H)-one], with 0.0005 µM.
